Experimental data reported in ChEMBL document CHEMBL1125808, “Studies on the macrocyclic part of the trichothecene satratoxin: partial synthesis and structure-activity relationship” (Bioorg Med Chem Lett, 1991).

Experiments:
[1] = organism: Mus musculus; assay: Cytotoxicity was evaluated on mice spleen lymphocytes stimulated by Phaseolus Vulgaris Phytohemagglutininin (PHA) after 72 hours; assay type: functional; parameters: unit not given here
[2] = organism: Mus musculus; assay: Cytotoxicity was evaluated on mice spleen lymphocytes stimulated by Phaseolus Vulgaris Phytohemagglutininin (PHA) after 48 hours; assay type: functional; parameters: unit not given here
[3] = test system: Daudi; assay: Concentration of compound to inhibit half of cell growth in malignant human lymphocytes: Daudi lymphoma cells; assay type: functional, cell-based; parameters: unit not given here
[4] = organism: Mus musculus; assay: Cytotoxicity of compound was evaluated on mice spleen lymphocytes stimulated by Phaseolus Vulgaris Phytohemagglutininin (PHA) after 48 hours; assay type: functional

| Compound | IC50 [1] | IC50 [2] | IC50 [3] | IC50 [4] [M ml-1] |
| --- | --- | --- | --- | --- |
| CCOC(=O)/C=C/[C@H]1OCC/C(=C\COCc2ccccc2)[C@@H]1O[Si](C)(C)C(C)(C)C | 1.4 | 0.7 | 0.6 |  |
| CCOC(=O)/C=C/C=C/[C@H]1OCC/C(=C\C(=O)OCC)[C@@H]1O[Si](C)(C)C(C)(C)C | 1.1 | 0.73 | 2.2 |  |
| CCOC(=O)/C=C/[C@H]1OCC/C(=C\C(=O)OCC)[C@@H]1O[Si](C)(C)C(C)(C)C | 17.6 |  | 9.3 | 8.8 |
| O=C1CC(O)[C@H]2OCC/C(=C\COCc3ccccc3)C2O1 (stereo not given in full) | 13 | 8.8 | 3.5 |  |
| COC(=O)CC(O)[C@H]1OCC/C(=C\COCc2ccccc2)C1O[Si](C)(C)C(C)(C)C (stereo not given in full) | 20 | 20 | 10 |  |
